Experimental data from ChEMBL document CHEMBL4024706 (Eur J Med Chem, 2017).

Tests used:
[1] = target: Aurora kinase C (Homo sapiens) (UniProt Q9UQB9); assay: Inhibition of wild-type human full length AURKC (M1 to S275 residues) expressed in bacterial expression system assessed as residual activity at 1 uM by Kinomescan method relative to control
[2] = target: Tyrosine-protein kinase receptor UFO (Homo sapiens) (UniProt P30530); assay: Inhibition of wild-type human partial length AXL (R497 to Y821 residues) expressed in bacterial expression system assessed as residual activity at 1 uM by Kinomescan method relative to control
[3] = target: BMP-2-inducible protein kinase (Homo sapiens) (UniProt Q9NSY1); assay: Inhibition of wild-type human partial length BIKE (S34 to N329 residues) expressed in bacterial expression system assessed as residual activity at 1 uM by Kinomescan method relative to control
[4] = target: Serine/threonine-protein kinase BRSK2 (Homo sapiens) (UniProt Q8IWQ3); assay: Inhibition of wild-type human full length BRSK2 (M1 to L674 residues) expressed in bacterial expression system assessed as residual activity at 1 uM by Kinomescan method relative to control
[5] = target: Calcium/calmodulin-dependent protein kinase type 1D (Homo sapiens) (UniProt Q8IU85); assay: Inhibition of wild-type human partial length CAMK1D (M1 to K299 residues) expressed in bacterial expression system assessed as residual activity at 1 uM by Kinomescan method relative to control
[6] = target: Calcium/calmodulin-dependent protein kinase kinase 1 (Homo sapiens) (UniProt Q8N5S9); assay: Inhibition of wild-type human partial length CAMKK1 (R65 to E414 residues) expressed in bacterial expression system assessed as residual activity at 1 uM by Kinomescan method relative to control
[7] = target: Cyclin-dependent kinase 11B (Homo sapiens) (UniProt P21127); assay: Inhibition of wild-type human partial length CDC2L1 (P353 to G692 residues) expressed in bacterial expression system assessed as residual activity at 1 uM by Kinomescan method relative to control
[8] = target: Casein kinase II subunit alpha' (Homo sapiens) (UniProt P19784); assay: Inhibition of wild-type human full length CSNK2A2 (M1 to R350 residues) expressed in mammalian expression system assessed as residual activity at 1 uM by Kinomescan method relative to control
[9] = target: Epithelial discoidin domain-containing receptor 1 (Homo sapiens) (UniProt Q08345); assay: Inhibition of wild-type human partial length DDR1 (R565 to V876 residues) expressed in bacterial expression system assessed as residual activity at 1 uM by Kinomescan method relative to control
[10] = test system: Epidermal growth factor receptor (Homo sapiens), P00533 [UNDEFINED MUTATION]; assay: Inhibition of human partial length EGFR S752-I759del mutant expressed in bacterial expression system assessed as residual activity at 1 uM by Kinomescan method relative to control
[11] = target: Mitogen-activated protein kinase 3 (Homo sapiens) (UniProt P27361); assay: Inhibition of wild-type human full length ERK1 (M1 to P379 residues) expressed in bacterial expression system assessed as residual activity at 1 uM by Kinomescan method relative to control
[12] = target: Fibroblast growth factor receptor 1 (Homo sapiens) (UniProt P11362); assay: Inhibition of wild-type human partial length FGFR1 (P357 to V669 residues) expressed in bacterial expression system assessed as residual activity at 1 uM by Kinomescan method relative to control
[13] = target: Fibroblast growth factor receptor 2 (Homo sapiens) (UniProt P21802); assay: Inhibition of wild-type human partial length FGFR2 (D457 to E769 residues) expressed in bacterial expression system assessed as residual activity at 1 uM by Kinomescan method relative to control
[14] = test system: Fibroblast growth factor receptor 3 (Homo sapiens), P22607 [G697C]; assay: Inhibition of human partial length FGFR3 G697C mutant (R442 to S771 residues) expressed in bacterial expression system assessed as residual activity at 1 uM by Kinomescan method relative to control
[15] = target: Interleukin-1 receptor-associated kinase 4 (Homo sapiens) (UniProt Q9NWZ3); assay: Inhibition of wild-type human partial length IRAK4 (M1 to S460 residues) expressed in mammalian expression system assessed as residual activity at 1 uM by Kinomescan method relative to control
[16] = target: Serine/threonine-protein kinase MAK (Homo sapiens) (UniProt P20794); assay: Inhibition of wild-type human partial length MAK (M1 to P314 residues) expressed in bacterial expression system assessed as residual activity at 1 uM by Kinomescan method relative to control
[17] = target: Serine/threonine-protein kinase MARK1 (Homo sapiens) (UniProt Q9P0L2); assay: Inhibition of wild-type human partial length MARK1 (Q30 to T341 residues) expressed in bacterial expression system assessed as residual activity at 1 uM by Kinomescan method relative to control
[18] = target: Maternal embryonic leucine zipper kinase (Homo sapiens) (UniProt Q14680); assay: Inhibition of wild-type human full length MELK (M1 to V651 residues) expressed in bacterial expression system assessed as residual activity at 1 uM by Kinomescan method relative to control
[19] = target: MAP kinase-interacting serine/threonine-protein kinase 1 (Homo sapiens) (UniProt Q9BUB5); assay: Inhibition of wild-type human full length MKNK1 (M1 to L424 residues) expressed in mammalian expression system assessed as residual activity at 1 uM by Kinomescan method relative to control
[20] = target: Serine/threonine-protein kinase MRCK alpha (Homo sapiens) (UniProt Q5VT25); assay: Inhibition of wild-type human partial length MRCKA (L57 to V418 residues) expressed in bacterial expression system assessed as residual activity at 1 uM by Kinomescan method relative to control
[21] = target: Myosin light chain kinase 2, skeletal/cardiac muscle (Homo sapiens) (UniProt Q9H1R3); assay: Inhibition of wild-type human partial length MYLK2 (D258 to K570 residues) expressed in bacterial expression system assessed as residual activity at 1 uM by Kinomescan method relative to control
[22] = target: Serine/threonine-protein kinase PknB (Mycobacterium tuberculosis) (UniProt P9WI81); assay: Inhibition of wild-type Mycobacterium tuberculosis H37Rv ATCC 25618 partial length PKNB (M1 to G279 residues) expressed in mammalian expression system assessed as residual activity at 1 uM by Kinomescan method relative to control
[23] = target: Serine/threonine-protein kinase PLK3 (Homo sapiens) (UniProt Q9H4B4); assay: Inhibition of wild-type human partial length PLK3 (A42 to L334 residues) expressed in mammalian expression system assessed as residual activity at 1 uM by Kinomescan method relative to control
[24] = target: Proto-oncogene tyrosine-protein kinase Src (Homo sapiens) (UniProt P12931); assay: Inhibition of wild-type human partial length SRC (L240 to L536 residues) expressed in bacterial expression system assessed as residual activity at 1 uM by Kinomescan method relative to control
[25] = target: Serine/threonine-protein kinase tousled-like 2 (Homo sapiens) (UniProt Q86UE8); assay: Inhibition of wild-type human partial length TLK2 (E424 to N749 residues) expressed in bacterial expression system assessed as residual activity at 1 uM by Kinomescan method relative to control

C=CC(=O)Nc1cc(Nc2cc(-c3cccc(NC(=O)c4ccc(C(C)(C)C)cc4)c3C)cn(C)c2=O)ccc1C(=O)N1CCOCC1
Activity [1]: 100%
Activity [2]: 86%
Activity [3]: 94%
Activity [4]: 92%
Activity [5]: 97%
Activity [6]: 100%
Activity [7]: 96%
Activity [8]: 100%
Activity [9]: 100%
Activity [10]: 97%
Activity [11]: 99%
Activity [12]: 94%
Activity [13]: 74%
Activity [14]: 100%
Activity [15]: 100%
Activity [16]: 84%
Activity [17]: 88%
Activity [18]: 98%
Activity [19]: 91%
Activity [20]: 98%
Activity [21]: 100%
Activity [22]: 100%
Activity [23]: 95%
Activity [24]: 99%
Activity [25]: 100%
